Laboratory results from US20200000091A1, “Microbe Proliferation Inhibitor, Method for Inhibiting Proliferation of Microbes, UV Resistance-Improving Agent, Method for Improving UV Resistance, Artificial Protein Formation Body and method for Manufacturing Same, Artificial Protein Solution, and Coloring Agent” (Keio University, priority 2017, published 2020).

System: Escherichia coli wild strain (W3110)
Test: Growth of Escherichia coli in M9 medium, absorbance (OD600) measured every hour
Format: cell-based
Details: 1 mM xanthurenic acid in M9 medium (Tris-HCl buffer pH 8), compared with Comparative Example 1 (no xanthurenic acid), FIG. 1
Experimental: An Escherichia coli wild strain (W3110) was cultured in M9 medium (7 mg/ml K2HPO4, 3 mg/ml KH2PO4, 0.5 mg/ml NaCl, 1 mg/ml NH4Cl, 1 mg/ml glucose, 1 mM MgSO4.7H2O, 14.7 μg/ml CaCl2)) containing 10 μg/ml thiamine. In preparing the medium, a Tris-HCl buffer solution (pH 8) was used instead of water in consideration of the solubility of xanthurenic acid. The obtained overnight cultures were diluted into 0.8% with 20 ml of a fresh medium containing 1 mM xanthurenic acid (Wako Pure Chemical Industries, Ltd.) to obtain a sample solution. Absorbance (OD600) was measured as to this sample solution every hour by using Nano Photometer (Implen GmbH).
The preparation and measurement of a sample solution were performed in the same way as in Example 1 except that the overnight cultures were diluted with a fresh medium containing no xanthurenic acid.

O=C(O)c1cc(O)c2cccc(O)c2n1 [Example 1, xanthurenic acid]
absorbance (OD600); proliferation of Escherichia coli: proliferation of Escherichia coli was inhibited
